Assays:
[1] = taken orally; cited from earlier work
[2] = system: formulation strains (AMUC, BINF, CBEI, CBUT, EHAL); format: cell-based

In the case of `CCC1=C(C)CN(C(=O)NCCc2ccc(S(=O)(=O)NC(=O)N[C@H]3CC[C@H](C)CC3)cc2)C1=O` [glimepiride], the fecal elimination percentage [1] is given as 40%, the plasma half-life [1] is given as 5 to 8 h and the “growth inhibition of formulation strains (yield decrease, lag increase)” value [2] is given as “largest inhibitory effect overall”.

For `Cc1cnc(C(=O)NCCc2ccc(S(=O)(=O)NC(=O)NC3CCCCC3)cc2)cn1` [glipizide], the fecal elimination percentage [1] is listed as 10%.

For `COc1ccc(Cl)cc1C(=O)NCCc1ccc(S(=O)(=O)NC(=O)NC2CCCCC2)cc1` [glyburide], the fecal elimination percentage [1] is given as 50%, the plasma half-life [1] is given as 4 to 10 h and the “growth inhibition of formulation strains (yield decrease, lag increase)” value [2] is given as “largest inhibitory effect overall”.
